The source of these data is article PMC4330465 (Journal of Computer-Aided Molecular Design, 2014).

Structures are written as SMILES. Counter-ions that a name gives are not always drawn. Like-named read-outs stand apart in the source and are kept apart here.

The target of assay [1] is T1, Recombinant Homo sapiens AChE (Homo sapiens, UniProt P22303).
T1 construct: made in house
Description: biochemical. The assay is classed as biochemical. The protocol: The training set of 18 compounds was experimentally evaluated for their ability to inhibit the enzymatic activity of AChE (Table 1 and Online Resource 1 for experimental details).
Reco mbinant Homo sapiens AChE was expressed according to previously described methods [ 6,7]. The enzymatic activit y wa s measured usi ng t he Ell ma n assa y [ 8] adapted to a 96-well for mat. The final assay volume was 200 µ L a nd all measurements were performed in 0.2 mM 5,5’-D ithiobis(2-nitrobenzoic acid) and 1 mM acethylthioc holine iodide in 0.1 M phosphate buffer pH 8.0. All measurements were perfor med in triplicates and the data was fitted to a (log)i nhibit or vs. response four parameters equation using GraphPad Prism (5.0). T he obtained IC50-values were recalculated to pIC50 according to pIC50=-log(IC50) in molar (M) concentration.

Assay [2] deals with T1, Recombinant Homo sapiens AChE. Particulars: test set Set3 (Table S15); cited from earlier work.
The mark [3] stands for this setting: training set, triplicates, pH 8.0.
[4] abbreviates: test sets Set1 and Set2 (Table S15), synthesized and biologically evaluated here.

T1 sequence (P22303 32-614): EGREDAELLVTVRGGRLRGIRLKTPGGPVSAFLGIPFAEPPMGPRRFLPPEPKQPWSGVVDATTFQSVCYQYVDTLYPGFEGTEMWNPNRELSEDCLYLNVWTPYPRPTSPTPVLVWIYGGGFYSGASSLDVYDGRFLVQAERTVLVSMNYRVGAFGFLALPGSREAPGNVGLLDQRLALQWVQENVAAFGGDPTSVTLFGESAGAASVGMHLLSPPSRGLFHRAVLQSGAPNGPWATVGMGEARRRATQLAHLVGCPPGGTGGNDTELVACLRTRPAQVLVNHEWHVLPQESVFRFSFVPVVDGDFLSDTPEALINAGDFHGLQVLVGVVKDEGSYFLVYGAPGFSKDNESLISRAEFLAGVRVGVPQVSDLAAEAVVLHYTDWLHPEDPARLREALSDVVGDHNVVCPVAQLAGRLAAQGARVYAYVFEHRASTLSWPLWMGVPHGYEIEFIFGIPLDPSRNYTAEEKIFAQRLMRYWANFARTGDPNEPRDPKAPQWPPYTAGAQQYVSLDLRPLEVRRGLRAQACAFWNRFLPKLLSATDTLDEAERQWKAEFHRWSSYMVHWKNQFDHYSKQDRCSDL

Take `O=C(NCCN1CCNCC1)c1sc2ccccc2c1Cl` [compound 16]: the IC50 in assay [1] (setting [3]) is 109 µM.

For the compound `Cc1ccc(S(=O)(=O)NCCCN2CCCCC2)cc1[N+](=O)[O-]` [compound 5], the IC50 in assay [1] (setting [3]) was 101 µM.

Regarding `COc1ccc(N2Cc3ccccc3C2=O)cc1S(=O)(=O)NCCCN(C)C` [compound 8], in assay [1] (setting [3]), the IC50 was 12 µM.

With `O=C(NCCC[n+]1ccccc1)c1sc2ccccc2c1Cl` [compound 14, 1-(3-[(3-Chloro-benzo[b]thiophen-2-carbonyl)-amino] -propyl)-pyridinium chloride], the IC50 in assay [1] (setting [3]) came out at 6.6 µM.

Turning to `O=C(Cc1ccc(C(F)(F)F)cc1)NCCN1CCCCC1` [compound 10, N-[2-(Piperidin-1-yl)-ethyl] -2-(4-trifluoromethyl-phenyl) -acetamide], the IC50 in assay [1] (setting [3]) was 323 µM.

For the compound `O=C(COc1ccccc1Cl)Nc1ccc(CN2CCCCC2)cc1` [compound 40], in assay [1] (setting [4]), the IC50 was found to be 0.6 µM.

As to `COc1ccc(N2Cc3ccccc3C2=O)cc1S(=O)(=O)NCCN1CCOCC1` [compound 7], the concentration for half-maximal inhibition (IC50) in assay [1] (setting [3]) worked out at 4250 µM.

Consider `O=C(COc1ccccc1)Nc1ccc(CN2CCCCC2)cc1` [compound 39], for which the IC50 in assay [1] (setting [4]) amounted to 1.3 µM.

On to `Cc1ccc(S(=O)(=O)NCCN(C)C)cc1[N+](=O)[O-]` [compound 4], for which the IC50 in assay [1] (setting [3]) worked out at 69.5 µM.

`CCN(CC)CCCNC(=O)c1ccc(C)c([N+](=O)[O-])c1` [compound 6]: the IC50 in assay [1] (setting [3]) was found to be 12.8 µM.

Consider `CCN(CC)CCCNC(=O)c1ccc(-c2ccc(Cl)cc2)o1` [compound 12, 5-(4-Chloro-phenyl)-furan-2-N-[3-(diethylamino)-propyl]-carboxamide hydrochloride], for which the IC50 in assay [1] (setting [3]) stood at 78 µM.

`Cc1ccc(C(=O)NCCC[n+]2ccccc2)cc1[N+](=O)[O-]` [compound 27]: the IC50 in assay [1] (setting [4]) came out at 4.9 µM.

Take `Cc1ccc(C(=O)NCCCN(C)C)cc1[N+](=O)[O-]` [compound 29]: the IC50 in assay [1] (setting [4]) is 19 µM.

In the case of `CN(C)CCCNC(=O)c1sc2ccccc2c1Cl` [compound 9, 3-Chloro-benzo[b]thiophene-2-N-(3-dimethylamino-propyl)-carboxamide hydrochlor ide], in assay [1] (setting [3]), the IC50 was 67.7 µM.

For the compound `O=C(Cc1ccc(Cl)cc1)NCCCN1CCOCC1` [compound 3], the IC50 in assay [1] (setting [3]) was greater than 1000 µM.

Consider `O=C(NCC[n+]1ccsc1)c1cc2cc([N+](=O)[O-])ccc2s1` [compound 31], for which the half-maximal inhibitory concentration (IC50) in assay [1] (setting [4]) came to 2.6 µM.

Take `CCN(CC)CCNS(=O)(=O)c1cccc(OC)c1` [compound 60]: the IC50 in assay [2] was 10 µM.

For the compound `O=C(COc1ccc(Cl)cc1)Nc1ccc(CN2CCCCC2)cc1` [compound 37], in assay [1] (setting [4]), the IC50 is 0.6 µM.

Regarding `Cc1ccc(C(=O)NCC[n+]2ccccc2)cc1[N+](=O)[O-]` [compound 28], in assay [1] (setting [4]), the IC50 was 10 µM.

As for `O=S(=O)(Cc1ccc(Cl)cc1)NCCCN1CCCCC1` [compound 2], the IC50 in assay [1] (setting [3]) amounted to 445 µM.

Consider `O=[N+]([O-])c1ccccc1S(=O)(=O)NCC[n+]1ccsc1` [compound 30], for which, in assay [1] (setting [4]), the IC50 came out at 12 µM.

In the case of `Cc1cc(C)c(OCC(=O)Nc2ccc(CN3CCCCC3)cc2)c(Cl)c1` [compound 38], the IC50 in assay [1] (setting [4]) came out at 1.3 µM.

As to `O=C(Cc1ccc(Cl)cc1)NCC[n+]1ccccc1` [compound 13, 1-(2-[2-(4 -Chloro-phenyl)-acetylamino]-ethyl)-pyridinium bromide], the IC50 in assay [1] (setting [3]) was 25 µM.

Take `O=C(CCc1ccc(Cl)cc1Cl)Nc1ccc(CN2CCCCC2)cc1` [compound 42]: the IC50 in assay [1] (setting [4]) turned out to be 0.7 µM.

As to `CCN(CC)Cc1ccc(NC(=O)COc2cc(C)ccc2C)cc1` [compound 41], in assay [1] (setting [4]), the IC50 amounted to 8.1 µM.

As to `O=C(NCCN1CCOCC1)c1ccc(-c2ccc(Cl)cc2)o1` [compound 11, 5-(4-Chlorophenyl)-N-(2-morpholinoethyl)furan-2-carboxamide], the concentration for half-maximal inhibition (IC50) in assay [1] (setting [3]) was 2430 µM.

For the compound `O=C(NCCCN1CCNCC1)c1ccc(-c2ccc(Cl)cc2)o1` [compound 18], the IC50 in assay [1] (setting [3]) came out at 136 µM.

In the case of `O=S(=O)(Cc1ccc(C(F)(F)F)cc1)NCCC[n+]1ccccc1` [compound 15], the IC50 in assay [1] (setting [3]) was 22.2 µM.

Regarding `CCN(CC)CCNS(=O)(=O)Cc1ccc(Cl)cc1` [compound 1], the IC50 in assay [1] (setting [3]) stood at 13 µM.

As for `O=S(=O)(Cc1ccc(C(F)(F)F)cc1)NCCCN1CCNCC1` [compound 17], the IC50 in assay [1] (setting [3]) stood at 4200 µM.

What is called IC50 is the concentration that inhibits the measured activity by half.
